This is an account of results in publication PMC11173618, “C2-Symmetrical Terphenyl Derivatives as Small Molecule Inhibitors of Programmed Cell Death 1/Programmed Death Ligand 1 Protein–Protein Interaction” (Molecules, 2024).

In the assay the target is T1, PD-1/PD-L1 complex (Homo sapiens, UniProt Q9NZQ7).
T1 construct: purchased cis-bio
Nature of the assay: HTRF assay of PD-1/PD-L1 complex inhibition (cis-bio kit). It is filed as binding. The conditions noted are these: for inhibition at 0.5 µM / inhibition at 5 µM: 1 h, scouting mode, 5 nM PD-L1, 50 nM PD-1, read-out: HTRF [%] (percentage of dissociated PD-1/PD-L1 complex); for inhibition at 0.5 µM: inhibitor 0.5 µM; for inhibition at 5 µM: inhibitor 5 µM. The method, then: All synthesized molecules were tested in the homogeneous time-resolved fluorescence (HTRF) assay to assess their activity as inhibitors of the PD-1/PD-L1 complex (Table 1, Table 2 and Table 3). This evaluation was conducted in scouting modes, employing concentrations of 5 μM and 0.5 μM. Based on the obtained measurements, the IC50 values were estimated for each tested compound.
The certified cis-bio assay kit was used to perform the HTRF assay. Following the standard protocol, the measurement was carried out at a 20 µL final volume with a 5 nM concentration of PD-L1 and a 50 nM concentration of PD-1 in the final formulation. […] The plate was incubated for 1 h and then read on an HTRF-certified Tecan Spark 20M microplate reader. Output data were subjected to background subtraction on negative control (without PD-1) and normalization in correlation to the positive control (without inhibitor) and were then averaged. The resulting data points were then fitted with Hill’s equation to generate IC50 using Mathematica 12. […]
On the technique in general: In TR-FRET formats the signal depends on donor and acceptor labels being close together.

T1 sequence (Q9NZQ7 19-238 limits assumed, one chain of several): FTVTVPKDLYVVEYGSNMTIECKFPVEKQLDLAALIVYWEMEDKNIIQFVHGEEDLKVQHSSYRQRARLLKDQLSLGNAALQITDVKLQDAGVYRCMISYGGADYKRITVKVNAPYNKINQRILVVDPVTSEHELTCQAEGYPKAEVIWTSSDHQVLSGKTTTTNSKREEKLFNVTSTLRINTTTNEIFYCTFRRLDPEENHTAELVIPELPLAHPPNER

Consider `CC(=O)NCCNCc1cccc(OCc2cccc(-c3cc(C)cc(-c4cccc(COc5cccc(CNCCNC(C)=O)c5)c4)c3)c2)c1` [Compound 4a, N,N’-(((((((5′-methyl-[1,1′:3′,1′′-terphenyl]-3,3′′-diyl)bis(methylene))bis(oxy))bis(3,1-phenylene))bis(methylene))bis(azanediyl))bis(ethane-2,1-diyl))diacetamide], for which the inhibition at 0.5 µM came out at 80.4 ± 18.8% and the inhibition at 5 µM is 56.8 ± 15.4%.
The matching figures for `CC(=O)NCCNCc1cccc(OCc2cccc(-c3cc(C)cc(-c4cccc(COc5cccc(CNCCNC(C)=O)c5Br)c4)c3)c2)c1Br` [Compound 4c, N,N’-(((((((5′-methyl-[1,1′:3′,1′′-terphenyl]-3,3′′-diyl)bis(methylene))bis(oxy))bis(2-bromo-3,1-phenylene))bis(methylene))bis(azanediyl))bis(ethane-2,1-diyl))diacetamide]: 88.6 ± 14% and 70.8 ± 18.8%.
`CC(=O)NCCNCc1cccc(OCc2cccc(-c3cc(C)cc(-c4cccc(COc5cccc(CNCCNC(C)=O)c5)c4F)c3)c2F)c1` [Compound 4d, N,N’-(((((((2,2′′-difluoro-5′-methyl-[1,1′:3′,1′′-terphenyl]-3,3′′-diyl)bis(methylene))bis(oxy))bis(3,1-phenylene))bis(methylene))bis(azanediyl))bis(ethane-2,1-diyl))diacetamide]: the inhibition at 0.5 µM came to 89.9 ± 19.8% and the inhibition at 5 µM is 22.5 ± 9.17%.
Consider `CC(=O)NCCNCc1cccc(OCc2cccc(-c3cc(C)cc(-c4cccc(COc5cccc(CNCCNC(C)=O)c5Br)c4C)c3)c2C)c1Br` [Compound 4e, N,N’-(((((((2,2′′,5′-trimethyl-[1,1′:3′,1′′-terphenyl]-3,3′′-diyl)bis(methylene))bis(oxy))bis(2-bromo-3,1-phenylene))bis(methylene))bis(azanediyl))bis(ethane-2,1-diyl))diacetamide], for which the inhibition at 0.5 µM came to 93.9 ± 5.5% and the inhibition at 5 µM stood at 94.2 ± 2.3%. Under “estimated from scouting data (5 and 0.5 µM) by translation of the Hill fit of 7b, 7j, 7m”, the “IC50 Estimated” value was “not active”.
In the case of `CC(=O)NCCNCc1cc(F)c(OCc2cccc(-c3cc(C)cc(-c4cccc(COc5cc(F)c(CNCCNC(C)=O)cc5F)c4C)c3)c2C)cc1F` [Compound 4f, N,N’-(((((((2,2′′,5′-trimethyl-[1,1′:3′,1′′-terphenyl]-3,3′′-diyl)bis(methylene))bis(oxy))bis(2,5-difluoro-4,1-phenylene))bis(methylene))bis(azanediyl))bis(ethane-2,1-diyl))diacetamide], the inhibition at 0.5 µM was found to be 85.7 ± 10.9% and the inhibition at 5 µM is 28.2 ± 1.5%.
The like results for `COc1cccc(CNCCNC(C)=O)c1OCc1ccccc1-c1cc(C)cc(-c2ccccc2COc2c(CNCCNC(C)=O)cccc2OC)c1` [Compound 5a, N,N’-(((((((5′-methyl-[1,1′:3′,1′′-terphenyl]-2,2′′-diyl)bis(methylene))bis(oxy))bis(3-methoxy-2,1-phenylene))bis(methylene))bis(azanediyl))bis(ethane-2,1-diyl))diacetamide] were, in that order, 84.3 ± 13.1% and 78.4 ± 6.4%.
The like results for `COc1cc(-c2cc(C)cc(-c3ccc(COc4c(CNCCNC(C)=O)cccc4OC)c(OC)c3)c2)ccc1COc1c(CNCCNC(C)=O)cccc1OC` [Compound 6a, N,N’-(((((((3,3′′-dimethoxy-5′-methyl-[1,1′:3′,1′′-terphenyl]-4,4′′-diyl)bis(methylene))bis(oxy))bis(3-methoxy-2,1-phenylene))bis(methylene))bis(azanediyl))bis(ethane-2,1-diyl))diacetamide] were, in that order, 86.1 ± 4.5% and 59.2 ± 2.6%.
The like results for `COc1cc(-c2cccc(-c3ccc(COc4ccc(CNCCNC(C)=O)cc4OC)c(OC)c3)c2C)ccc1COc1ccc(CNCCNC(C)=O)cc1OC` [Compound 7a, N,N’-(((((((3,3′′-dimethoxy-2′-methyl-[1,1′:3′,1′′-terphenyl]-4,4′′-diyl)bis(methylene))bis(oxy))bis(3-methoxy-4,1-phenylene))bis(methylene))bis(azanediyl))bis(ethane-2,1-diyl))diacetamide] were, in that order, 72.5 ± 8.1% and 23.8 ± 0.3%.
Turning to `COc1cc(-c2cccc(-c3ccc(COc4ccc(CNCCO)cc4OC)c(OC)c3)c2C)ccc1COc1ccc(CNCCO)cc1OC` [Compound 7b, 2,2′-((((((3,3′′-dimethoxy-2′-methyl-[1,1′:3′,1′′-terphenyl]-4,4′′-diyl)bis(methylene))bis(oxy))bis(3-methoxy-4,1-phenylene))bis(methylene))bis(azanediyl))bis(ethan-1-ol)], the inhibition at 0.5 µM came to 60.9 ± 3.9% and the inhibition at 5 µM amounted to 11.9 ± 1%.
The like results for `COc1cc(CNCCNC(C)=O)ccc1OCc1ccc(-c2cccc(-c3ccc(COc4ccc(CNCCNC(C)=O)cc4OC)cc3C)c2C)c(C)c1` [Compound 7c, N,N’-(((((((2,2′,2′′-trimethyl-[1,1′:3′,1′′-terphenyl]-4,4′′-diyl)bis(methylene))bis(oxy))bis(3-methoxy-4,1-phenylene))bis(methylene))bis(azanediyl))bis(ethane-2,1-diyl))diacetamide] were, in that order, 82.1 ± 8% and 77.1 ± 0.7%.
Turning to `COc1cc(CNCCO)ccc1OCc1ccc(-c2cccc(-c3ccc(COc4ccc(CNCCO)cc4OC)cc3C)c2C)c(C)c1` [Compound 7d, 2,2′-((((((2,2′,2′′-trimethyl-[1,1′:3′,1′′-terphenyl]-4,4′′-diyl)bis(methylene))bis(oxy))bis(3-methoxy-4,1-phenylene))bis(methylene))bis(azanediyl))bis(ethan-1-ol)], the inhibition at 0.5 µM is 86.1 ± 12.7% and the inhibition at 5 µM stood at 35.7 ± 3.3%.
The matching figures for `COc1cc(CNCCNC(C)=O)ccc1OCc1ccc(-c2cccc(-c3ccc(COc4ccc(CNCCNC(C)=O)cc4OC)c(C)c3)c2C)cc1C` [Compound 7e, N,N’-(((((((2′,3,3′′-trimethyl-[1,1′:3′,1′′-terphenyl]-4,4′′-diyl)bis(methylene))bis(oxy))bis(3-methoxy-4,1-phenylene))bis(methylene))bis(azanediyl))bis(ethane-2,1-diyl))diacetamide]: 93.8 ± 3.6% and 55.3 ± 13.4%.
The matching figures for `COc1cc(CNCCO)ccc1OCc1ccc(-c2cccc(-c3ccc(COc4ccc(CNCCO)cc4OC)c(C)c3)c2C)cc1C` [Compound 7f, 2,2′-((((((2′,3,3′′-trimethyl-[1,1′:3′,1′′-terphenyl]-4,4′′-diyl)bis(methylene))bis(oxy))bis(3-methoxy-4,1-phenylene))bis(methylene))bis(azanediyl))bis(ethan-1-ol)]: 93.1 ± 17.4% and 46.4 ± 9.6%.
The matching figures for `COc1cc(CNC(CO)CO)ccc1OCc1ccc(-c2cccc(-c3ccc(COc4ccc(CNC(CO)CO)cc4OC)c(C)c3)c2C)cc1C` [Compound 7g, 2,2′-((((((2′,3,3′′-trimethyl-[1,1′:3′,1′′-terphenyl]-4,4′′-diyl)bis(methylene))bis(oxy))bis(3-methoxy-4,1-phenylene))bis(methylene))bis(azanediyl))bis(propane-1,3-diol)]: 94.5 ± 18.1% and 53.7 ± 1.7%.
For the compound `CC(=O)NCCNCc1cc(F)c(OCc2ccc(-c3cccc(-c4ccc(COc5cc(F)c(CNCCNC(C)=O)cc5F)c(C)c4)c3C)cc2C)cc1F` [Compound 7h, N,N’-(((((((2′,3,3′′-trimethyl-[1,1′:3′,1′′-terphenyl]-4,4′′-diyl)bis(methylene))bis(oxy))bis(2,5-difluoro-4,1-phenylene))bis(methylene))bis(azanediyl))bis(ethane-2,1-diyl))diacetamide], the inhibition at 0.5 µM came out at 84.1 ± 26.4% and the inhibition at 5 µM worked out at 69 ± 0.9%.
The matching figures for `Cc1cc(-c2cccc(-c3ccc(COc4cc(F)c(CNCCO)cc4F)c(C)c3)c2C)ccc1COc1cc(F)c(CNCCO)cc1F` [Compound 7i, 2,2′-((((((2′,3,3′′-trimethyl-[1,1′:3′,1′′-terphenyl]-4,4′′-diyl)bis(methylene))bis(oxy))bis(2,5-difluoro-4,1-phenylene))bis(methylene))bis(azanediyl))bis(ethan-1-ol)]: 78.5 ± 7.3% and 42.2 ± 7.2%.
The matching figures for `CC(=O)NCCNCc1cccc(OCc2ccc(-c3cccc(-c4ccc(COc5cccc(CNCCNC(C)=O)c5Br)cc4)c3C)cc2)c1Br` [Compound 7j, N,N’-(((((((2′-methyl-[1,1′:3′,1′′-terphenyl]-4,4′′-diyl)bis(methylene))bis(oxy))bis(2-bromo-3,1-phenylene))bis(methylene))bis(azanediyl))bis(ethane-2,1-diyl))diacetamide]: 40.4 ± 1.5% and 11.1 ± 0.3%.
Take `Cc1c(-c2cccc(COc3cccc(CNCCO)c3Br)c2)cccc1-c1cccc(COc2cccc(CNCCO)c2Br)c1` [Compound 8a, 2,2′-((((((2′-methyl-[1,1′:3′,1′′-terphenyl]-3,3′′-diyl)bis(methylene))bis(oxy))bis(2-bromo-3,1-phenylene))bis(methylene))bis(azanediyl))bis(ethan-1-ol)]: the inhibition at 0.5 µM amounted to 94.6 ± 0.1% and the inhibition at 5 µM stood at 23 ± 0.1%.
